Experimental data reported in US10874743B2, “IRAK degraders and uses thereof” (Kymera Therapeutics, Inc., priority 2017, dated 2020).

Biological target: T1, IRAK4 (Homo sapiens, UniProt Q9NWZ3)
T1 sequence (Q9NWZ3 1-460): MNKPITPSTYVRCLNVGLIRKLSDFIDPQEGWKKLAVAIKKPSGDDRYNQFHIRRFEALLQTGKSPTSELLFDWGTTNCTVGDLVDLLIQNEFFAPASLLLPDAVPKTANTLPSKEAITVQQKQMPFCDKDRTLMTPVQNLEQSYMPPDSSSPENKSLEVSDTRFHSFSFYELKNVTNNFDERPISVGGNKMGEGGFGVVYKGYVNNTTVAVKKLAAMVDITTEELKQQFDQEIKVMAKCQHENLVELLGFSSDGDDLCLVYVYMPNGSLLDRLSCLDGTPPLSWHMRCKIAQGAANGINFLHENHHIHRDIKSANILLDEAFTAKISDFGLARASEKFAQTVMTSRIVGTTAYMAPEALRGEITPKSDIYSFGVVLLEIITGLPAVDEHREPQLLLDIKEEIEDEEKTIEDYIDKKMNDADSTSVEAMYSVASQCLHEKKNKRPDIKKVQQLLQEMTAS
Test: OCI-LY-10 degradation assay (western blot, % IRAK4 degraded after 4 hours)
Format: cell-based
Parameters: endogenous in cells; host or cells: OCI-LY10
Conditions: OCI-LY10 cells, IRAK4 degraded after 4 hours, western blot
Procedure: Compounds were reconstituted in DMSO to make stock solutions at concentration of 60 mM. THP-1 and OCI-LY10 cells were maintained in RPMI-1640 medium containing 10% FBS, 0.5 μM 2-ME or 20% FBS, 55 μM 2-ME, and 1% L-Glutamine respectively.
Cells were seeded into 6-well plates with 5e6 cells per well. 200 μL of diluted compounds were added to cells to the final concentration of 0.003-10 μM. After 4 or 24 hour-incubation at 37° C., cells were collected into 2 mL Eppendorf tubes and centrifuged at 1,000 rpm for 5 min. The cell pellets were washed with 1×DPBS once and resuspended in 60 μL lysis buffer. The cells were lysed on ice for 10 min, then centrifuged at 14,000 rpm for 10 min at 4° C. and the supernatants were collected for western blots. For THP-1 cells, the lysis buffer contained 40 mM pH 7.4 HEPES, 140 mM NaCl, 2.5 mM EDTA, 1% NP-40, 0.1% SDS, and protease inhibitor cocktail (Roche, Cat. No. 05892791001). For OCI-LY10 cells, RIPAbuffer (Thermo Fisher, 89900) with Halt Protease and Phosphatase Inhibitor Cocktail (Thermo Fisher, 78446) was applied.
The protein concentration of cell lysates was quantified with Pierce™ BCA Protein Assay Kit (Pierce, 23227). Albumin standards at different concentrations were prepared, involving 2,000 ug/mL, 1,500 ug/mL, 1,000 ug/mL, 750 ug/mL, 500 ug/mL, 250 ug/mL, 125 ug/mL, and 25 ug/mL. BCA working reagents were prepared by mixing BCA reagent A with reagent B in 50:1 ratio. 200 μL of the BCA working reagents were added to 25 μL of BCA standard or cell lysates in microplate, and mixed thoroughly on a plate shaker for 30 seconds. After incubation at 37° C. for 30 min, the absorbance of samples at 562 nm were measured with EnVision Plate Reader.
Protein lysates were prepared in NuPAGE™ LDS sample buffer and NuPAGE™ sample reducing agent, and incubated at 95° C. for 5 min. For western blots, 20-25 μg of total proteins were resolved in 4-12% Bis-Tris gels (Introgen, WG1403A) or 10% Bis-Tris Midi gels (Invitrogen, WG1202BOX) running with 1×MOPS SDS running buffer (Invitrogen, NP0001) or 1×MES SDS running buffer (Invitrogen, NP0002). The proteins were transferred to low fluorescence PVDF membranes using the Trans-Blot Turbo Transfer System. Membranes were then blocked in Odyssey blocking buffer at RT for 1 h followed by primary incubation at 4° C. overnight. The primary antibodies were IRAK1 rabbit monoclonal antibody (CST, #4504S, 1:500), IRAK3 rabbit polyclonal antibody (CST, #4369, 1:500), IRAK4 rabbit polyclonal antibody (CST, #4363S, 1:1,000), MyD88 rabbit monoclonal antibody (Abcam, Ab133739, 1:2,000), j3-actin mouse monoclonal antibody (Sigma, A5441, 10,000), and Gapdh mouse monoclonal antibody (Millipore, MAB374, 1:5,000). Membranes were washed three times with 1×TBST, and then incubated with IR Dye 800 CW Goat anti-rabbit (Licor, #926-32211) and IR Dye 700 CW Goat anti-mouse (Licor, #926-68070) secondary antibodies in 1:10,000 dilution at RT for 1 h. The western blot images were obtained using Odyssey Imaging System.
OCI-LY-10 results at 4 hours. The letter codes indicate the percentage of IRAK4 degraded after 4 hours: A (>50% degradation), B (>20-50% degradation) and C (<20% degradation)
OCI-LY-10 results at 4 hours. The letter codes for % IRAK4 degradation indicate the percentage of IRAK4 degraded after 4 hours across three different concentrations: A (>50% degradation), B (>20-50% degradation) and C (<20% degradation).

Row | OCI-LY10 % IRAK4 Degradation | Structure (SMILES)
1 | C (<20% degradation) | O=C(COc1cccc2c1C(=O)N(C1CCC(=O)NC1=O)C2=O)NCCCCNC(=O)[C@H]1CC[C@H](NC(=O)c2cnc(Nc3ccc4cnccc4n3)cc2NC2CC2)CC1 (stereo partly shown) [I-9]
2 | C (<20% degradation) | N#Cc1cnc2c(cnn2-c2cc(NC3CC3)c(C(=O)N[C@H]3CC[C@H](C(=O)NCCOCCOCCOCCNC(=O)COc4cccc5c4C(=O)N(C4CCC(=O)NC4=O)C5=O)CC3)cn2)c1 (stereo partly shown) [I-17]
3 | B (>20-50% degradation) | N#Cc1cnc2c(cnn2-c2cc(NC3CC3)c(C(=O)N[C@H]3CC[C@H](COCCOCCOCCOCCNC(=O)COc4cccc5c4C(=O)N(C4CCC(=O)NC4=O)C5=O)CC3)cn2)c1 (stereo partly shown) [I-18]
4 | C (<20% degradation) | N#Cc1cnc2c(cnn2-c2cc(NC3CC3)c(C(=O)N[C@H]3C[C@H](C(=O)NCCOCCOCCOCCOCCNc4cccc5c4C(=O)N(C4CCC(=O)NC4=O)C5=O)C3)cn2)c1 (stereo partly shown) [I-21, 6-(5-cyano-1H-pyrazolo[3,4-b]pyridin-1-yl)-4-(cyclopropylamino)-N-((1r,3r)-3-((14-((2-(2,6-dioxopiperidin-3-yl)-1,3-dioxoisoindolin-4-yl)amino)-3,6,9,12-tetraoxatetradecyl)carbamoyl)cyclobutyl)nicotinamide]
5 | C (<20% degradation) | N#Cc1cnc2c(cnn2-c2cc(NC3CC3)c(C(=O)N[C@H]3CC[C@H](C(=O)NCCOCCOCCOCCOCCNc4cccc5c4C(=O)N(C4CCC(=O)NC4=O)C5=O)CC3)cn2)c1 (stereo partly shown) [I-22, 6-(5-cyano-1H-pyrazolo[3,4-b]pyridin-1-yl)-4-(cyclopropylamino)-N-((1r,4r)-4-((14-((2-(2,6-dioxopiperidin-3-yl)-1,3-dioxoisoindolin-4-yl)amino)-3,6,9,12-tetraoxatetradecyl)carbamoyl)cyclohexyl)nicotinamide]
6 | C (<20% degradation) | O=C1CCC(N2C(=O)c3cccc(NCCOCCOCCNC(=O)[C@H]4C[C@H](NC(=O)c5cnc(Nc6ccc7cnccc7n6)cc5NC5CC5)C4)c3C2=O)C(=O)N1 (stereo partly shown) [I-26, 6-((1,6-naphthyridin-2-yl)amino)-4-(cyclopropylamino)-N-((1r,3r)-3-((2-(2-(2-((2-(2,6-dioxopiperidin-3-yl)-1,3-dioxoisoindolin-4-yl)amino)ethoxy)ethoxy)ethyl)carbamoyl)cyclobutyl)nicotinamide]
7 | C (<20% degradation) | N#Cc1cnc2c(cnn2-c2cc(NC3CC3)c(C(=O)N[C@H]3C[C@H](C(=O)NCCOCCOCCNc4cccc5c4C(=O)N(C4CCC(=O)NC4=O)C5=O)C3)cn2)c1 (stereo partly drawn) [I-27, 6-(5-cyano-1H-pyrazolo[3,4-b]pyridin-1-yl)-4-(cyclopropylamino)-N-((1R,3R)-3-((2-(2-(2-((2-(2,6-dioxopiperidin-3-yl)-1,3-dioxoisoindolin-4-yl)amino)ethoxy)ethoxy)ethyl)carbamoyl)cyclobutyl)nicotinamide]
8 | C (<20% degradation) | O=C1CCC(N2C(=O)c3cccc(NCCOCCOCCOC[C@H]4C[C@H](NC(=O)c5cnc(Nc6ccc7cnccc7n6)cc5NC5CC5)C4)c3C2=O)C(=O)N1 (stereo partly shown) [I-31]
9 | C (<20% degradation) | N#Cc1cnc2c(cnn2-c2cc(NC3CC3)c(C(=O)N[C@H]3CC[C@H](COCCOCCOCCNc4cccc5c4C(=O)N(C4CCC(=O)NC4=O)C5=O)CC3)cn2)c1 (stereo partly shown) [I-32]
10 | C (<20% degradation) | N#Cc1cnc2c(cnn2-c2cc(NC3CC3)c(C(=O)N[C@H]3CC[C@H](COCCOCCOCCOCCOCCNc4cccc5c4C(=O)N(C4CCC(=O)NC4=O)C5=O)CC3)cn2)c1 (stereo partly shown) [I-33]
11 | C (<20% degradation) | N#Cc1cnc2c(cnn2-c2cc(NC3CC3)c(C(=O)N[C@H]3C[C@H](COCCOCCOCCNc4cccc5c4C(=O)N(C4CCC(=O)NC4=O)C5=O)C3)cn2)c1 (stereo partly shown) [I-34]
12 | C (<20% degradation) | N#Cc1cnc2c(cnn2-c2cc(NC3CC3)c(C(=O)N[C@H]3CC[C@H](COCCOCCOCCNc4cccc5c4C(=O)N(C4CCC(=O)NC4=O)C5=O)C3)cn2)c1 (stereo partly shown) [I-35]
13 | C (<20% degradation) | N#Cc1cnc2c(cnn2-c2cc(NC3CC3)c(C(=O)N[C@H]3C[C@H](COCCOCCOCCOCCOCCNc4cccc5c4C(=O)N(C4CCC(=O)NC4=O)C5=O)C3)cn2)c1 (stereo partly shown) [I-36]
14 | C (<20% degradation) | CN(CCOCCOCCNc1cccc2c1C(=O)N(C1CCC(=O)NC1=O)C2=O)C(=O)[C@H]1C[C@H](NC(=O)c2cnc(-n3ncc4cc(C#N)cnc43)cc2NC2CC2)C1 (stereo partly shown) [I-37]
15 | C (<20% degradation) | CN(CCOCCOCCOCCOCCNc1cccc2c1C(=O)N(C1CCC(=O)NC1=O)C2=O)C(=O)[C@H]1CC[C@H](NC(=O)c2cnc(-n3ncc4cc(C#N)cnc43)cc2NC2CC2)CC1 (stereo partly shown) [I-38]
16 | C (<20% degradation) | CN(CCOCCOCCOCCOCCNc1cccc2c1C(=O)N(C1CCC(=O)NC1=O)C2=O)C(=O)[C@H]1C[C@H](NC(=O)c2cnc(-n3ncc4cc(C#N)cnc43)cc2NC2CC2)C1 (stereo partly shown) [I-39]
17 | C (<20% degradation) | O=C1CCC(N2C(=O)c3cccc(NCCOCc4ccc(COCCNC(=O)[C@H]5CC[C@H](NC(=O)c6cnc(Nc7ccc8cnccc8n7)cc6NC6CC6)CC5)nc4)c3C2=O)C(=O)N1 (stereo partly shown) [I-41, 6-((1,6-naphthyridin-2-yl)amino)-4-(cyclopropylamino)-N-((1r,4r)-4-((2-((5-((2-((2-(2,6-dioxopiperidin-3-yl)-1,3-dioxoisoindolin-4-yl)amino)ethoxy)methyl)pyridin-2-yl)methoxy)ethyl)carbamoyl)cyclohexyl)nicotinamide]
18 | C (<20% degradation) | CN(CCOCCOCCNc1cccc2c1C(=O)N(C1CCC(=O)NC1=O)C2=O)C(=O)[C@H]1CC[C@H](NC(=O)c2cnc(-n3ncc4cc(C#N)cnc43)cc2NC2CC2)CC1 (stereo partly shown) [I-42, 6-(5-cyano-1H-pyrazolo[3,4-b]pyridin-1-yl)-4-(cyclopropylamino)-N-((1r,4r)-4-((2-(2-(2-((2-(2,6-dioxopiperidin-3-yl)-1,3-dioxoisoindolin-4-yl)amino)ethoxy)ethoxy)ethyl) (methyl)carbamoyl)cyclohexyl)nicotinamide]
19 | B (>20-50% degradation) | CN(CCOCCOCCNc1cccc2c1C(=O)N(C1CCC(=O)NC1=O)C2=O)C(=O)[C@H]1C[C@H](NC(=O)c2cnc(Nc3ccc4cnccc4n3)cc2NC2CC2)C1 (stereo partly shown) [I-44, 6-((1,6-naphthyridin-2-yl)amino)-4-(cyclopropylamino)-N-((1r,3r)-3-((2-(2-(2-((2-(2,6-dioxopiperidin-3-yl)-1,3-dioxoisoindolin-4-yl)amino)ethoxy)ethoxy)ethyl)(methyl)carbamoyl)cyclobutyl)nicotinamide]
